This is an account of results in US20060223846A1, “Aza-bridged-bicyclic amino acid derivatives as alpha4 integrin antagonists” (priority 2005, published 2006).

A word on the IC50: it is the concentration that gives 50% inhibition.

One test has as its target T1, human α4β7 (Homo sapiens, UniProt P13612+P26010).
T1 construct: expressed in transfected cells
T1 sequence (P13612 34-1032): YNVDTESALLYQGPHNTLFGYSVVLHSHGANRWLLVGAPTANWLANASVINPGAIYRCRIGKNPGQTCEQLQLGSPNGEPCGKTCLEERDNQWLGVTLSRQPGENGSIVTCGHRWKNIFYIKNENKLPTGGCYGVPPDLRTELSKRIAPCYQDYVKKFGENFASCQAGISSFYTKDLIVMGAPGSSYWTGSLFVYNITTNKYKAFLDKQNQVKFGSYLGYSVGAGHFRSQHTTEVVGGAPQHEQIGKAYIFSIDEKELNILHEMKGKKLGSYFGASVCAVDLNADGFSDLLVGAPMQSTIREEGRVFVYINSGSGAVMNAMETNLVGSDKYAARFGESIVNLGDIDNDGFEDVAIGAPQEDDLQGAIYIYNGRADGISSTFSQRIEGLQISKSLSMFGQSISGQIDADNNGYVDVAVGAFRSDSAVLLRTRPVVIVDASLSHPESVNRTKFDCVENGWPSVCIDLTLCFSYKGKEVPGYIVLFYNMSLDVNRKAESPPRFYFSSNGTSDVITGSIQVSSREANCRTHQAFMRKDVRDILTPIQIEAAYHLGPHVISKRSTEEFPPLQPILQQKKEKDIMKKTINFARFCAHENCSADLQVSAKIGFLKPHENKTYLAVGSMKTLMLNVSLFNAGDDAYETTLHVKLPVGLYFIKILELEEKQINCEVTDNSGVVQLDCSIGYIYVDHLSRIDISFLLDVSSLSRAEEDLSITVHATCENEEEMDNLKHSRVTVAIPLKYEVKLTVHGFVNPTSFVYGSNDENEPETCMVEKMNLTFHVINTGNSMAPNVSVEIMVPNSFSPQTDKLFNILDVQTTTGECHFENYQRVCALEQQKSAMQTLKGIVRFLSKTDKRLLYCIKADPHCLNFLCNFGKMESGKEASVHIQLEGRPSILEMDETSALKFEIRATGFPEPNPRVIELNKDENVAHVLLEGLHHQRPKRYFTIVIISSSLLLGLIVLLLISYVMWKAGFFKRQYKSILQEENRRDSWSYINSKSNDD
T1 sequence (P26010 20-798): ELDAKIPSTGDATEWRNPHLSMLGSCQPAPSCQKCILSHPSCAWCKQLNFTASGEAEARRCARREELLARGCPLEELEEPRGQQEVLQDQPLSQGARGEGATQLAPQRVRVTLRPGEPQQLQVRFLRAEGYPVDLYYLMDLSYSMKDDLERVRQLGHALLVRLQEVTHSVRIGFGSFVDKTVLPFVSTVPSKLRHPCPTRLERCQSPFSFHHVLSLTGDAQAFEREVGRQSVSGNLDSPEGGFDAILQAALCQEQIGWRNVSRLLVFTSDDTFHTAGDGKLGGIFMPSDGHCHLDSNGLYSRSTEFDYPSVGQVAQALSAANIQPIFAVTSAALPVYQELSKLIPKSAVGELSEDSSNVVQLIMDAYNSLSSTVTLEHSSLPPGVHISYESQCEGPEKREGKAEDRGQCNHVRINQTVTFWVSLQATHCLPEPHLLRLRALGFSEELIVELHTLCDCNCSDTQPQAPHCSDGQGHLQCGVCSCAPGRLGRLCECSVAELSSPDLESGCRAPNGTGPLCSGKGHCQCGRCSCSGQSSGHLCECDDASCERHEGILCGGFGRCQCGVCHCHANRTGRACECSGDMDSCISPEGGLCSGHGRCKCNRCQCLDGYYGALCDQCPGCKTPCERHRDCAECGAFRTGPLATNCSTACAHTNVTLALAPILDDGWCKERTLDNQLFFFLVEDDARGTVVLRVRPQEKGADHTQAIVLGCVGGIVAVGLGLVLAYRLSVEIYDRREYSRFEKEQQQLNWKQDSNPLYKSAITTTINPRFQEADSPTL
Briefly: α4β7-K562 Cell Adhesion Assay (α4β7 Mediated Adhesion/VCAM-1). In kind it is cell-based. To be noted: K562 cells expressing human α4β7 on recombinant hVCAM-1; read-out: α4β7 IC50. How it is done:
(§1) α4β7-K562 Cell Adhesion Assay (α4β7 Mediated Adhesion/VCAM-1) Immulon 96 well plates (Dynex) were coated with 100 μL recombinant hVCAM-1 at 4.0 μg/mL in 0.05 M NaCO3 buffer pH 9.0 overnight at 4° C. (R&D System). Plates were washed 3 times in PBS with 1% BSA and blocked for 1 h @ room temperature in this buffer. PBS was removed and compounds to be tested (50 μL) were added at 2× concentration. A stable cell line of K562 cells expressing human α4β7, (50 μL at 2×10^6/mL) labeled with 5 μM Calcein AM (Molecular Probes) for 1 h at 37° C., were added to each well and allowed to adhere for 1 h at room temperature. Plates were washed 3× in PBS+1% BSA and cells were lysed for 15 minutes in 100 μL of 1 M Tris pH 8.0 with 1% SDS. The plate was read at 485 nm excitation and 530 nm emission.

The next test concerns the target α4β1 (Homo sapiens, UniProt P05556+P13612). Put plainly: Ramos Cell Adhesion Assay (α4β1 Mediated Adhesion/VCAM-1). In kind it is cell-based. The following applies: Ramos cells on recombinant hVCAM-1; read-out: α4β1 IC50. More on the design: Ramos cells, (50 μL at 2×10^6/mL) labeled with 5 μM Calcein AM; endogenous in cells; host or cells: Ramos cells. The method, then:
as §1, with “Ramos” for “α4β7-K562”, “α4β1” for “(α4β7”, “[…]” for “96”, “Systems).” for “System).”, “Ramos cells,” for “A stable cell line of K562 cells expressing human α4β7,”

α4β1, sequence (P05556 21-798, one chain of several): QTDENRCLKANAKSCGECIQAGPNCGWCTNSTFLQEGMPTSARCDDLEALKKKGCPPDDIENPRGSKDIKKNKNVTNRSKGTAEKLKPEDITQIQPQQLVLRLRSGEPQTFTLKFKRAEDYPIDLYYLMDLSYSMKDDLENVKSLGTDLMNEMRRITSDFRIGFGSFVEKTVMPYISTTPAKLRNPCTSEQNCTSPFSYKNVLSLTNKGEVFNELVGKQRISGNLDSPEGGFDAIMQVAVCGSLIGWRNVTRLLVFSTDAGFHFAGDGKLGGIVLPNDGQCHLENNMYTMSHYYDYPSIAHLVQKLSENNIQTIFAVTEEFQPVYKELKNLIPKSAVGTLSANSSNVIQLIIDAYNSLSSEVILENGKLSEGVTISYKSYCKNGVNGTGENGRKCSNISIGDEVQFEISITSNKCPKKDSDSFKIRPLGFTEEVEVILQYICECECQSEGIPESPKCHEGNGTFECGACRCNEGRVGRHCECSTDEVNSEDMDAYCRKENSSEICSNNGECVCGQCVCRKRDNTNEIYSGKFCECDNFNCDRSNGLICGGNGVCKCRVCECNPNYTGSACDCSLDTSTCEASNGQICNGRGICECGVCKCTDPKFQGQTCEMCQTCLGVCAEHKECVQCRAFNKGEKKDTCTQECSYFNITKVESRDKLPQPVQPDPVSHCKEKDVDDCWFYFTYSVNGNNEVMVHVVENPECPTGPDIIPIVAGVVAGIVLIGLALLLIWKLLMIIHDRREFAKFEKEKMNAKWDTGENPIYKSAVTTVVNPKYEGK

In the case of `O=C(Nc1ccc(CC(NC(=O)C2C3CCC(CC3)N2C(=O)OCc2ccccc2)C(=O)O)cc1)c1c(Cl)cncc1Cl` (stereo not drawn) [Cpd 42], the IC50 was 0.024 µM on human α4β7 and 0.008 µM on α4β1.
`O=C(Nc1ccc(CC(NC(=O)C2C3CCC(CC3)N2C(=O)Cc2ccccc2C(F)(F)F)C(=O)O)cc1)c1c(Cl)cncc1Cl` (stereo not drawn) [Cpd 2]: the half-inhibitory concentration (IC50) at human α4β7 is 0.316 µM; on α4β1, 0.164 µM.
For `O=C(Nc1ccc(CC(NC(=O)C2C3CCC(CC3)N2C(=O)CC2CCOCC2)C(=O)O)cc1)c1c(Cl)cncc1Cl` (stereo not drawn) [Cpd 41] the same measures were 0.03 µM and 0.011 µM.
For `Cc1ccc(NC(=O)N2C3CCC(CC3)[C@H]2C(=O)N[C@@H](Cc2ccc(NC(=O)c3c(Cl)cncc3Cl)cc2)C(=O)O)cc1` [Cpd 21, 3-{4-[(3,5-dichloro-pyridine-4-carbonyl)-amino]-phenyl}-2-[(2-p-tolylcarbamoyl-2-aza-bicyclo[2.2.2]octane-3-carbonyl)-amino]-propionic acid] the same measures were 0.124 µM and 0.585 µM.
For `O=C(Nc1ccc(CC(NC(=O)C2C3CCC(CC3)N2C(=O)Cc2csc3ccccc23)C(=O)O)cc1)c1c(Cl)cncc1Cl` (stereo not drawn) [Cpd 36] the same measures were 0.066 µM and 0.055 µM.
As for `COc1ccc(CC(=O)N2C3CCC(CC3)C2C(=O)NC(Cc2ccc(NC(=O)c3c(Cl)cncc3Cl)cc2)C(=O)O)cc1` (stereo not drawn) [Cpd 30], the concentration for half-maximal inhibition (IC50) on human α4β7 was 0.071 µM; at α4β1, 0.115 µM.
Take `O=C(Nc1ccc(CC(NC(=O)C2C3CCC(CC3)N2C(=O)CCc2ccc(C(F)(F)F)cc2)C(=O)O)cc1)c1c(Cl)cncc1Cl` (stereo not drawn) [Cpd 50]: the half-maximal inhibitory concentration (IC50) on human α4β7 was 0.075 µM; on α4β1 it was 0.006 µM.
For `O=C(Nc1ccc(CC(NC(=O)C2C3CCC(CC3)N2C(=O)c2ccccc2Oc2ccccc2)C(=O)O)cc1)c1c(Cl)cncc1Cl` (stereo not drawn) [Cpd 63] the same measures were 0.066 µM and 0.055 µM.
Consider `O=C(Nc1ccc(CC(NC(=O)C2C3CCC(CC3)N2C(=O)c2c(Cl)cccc2Cl)C(=O)O)cc1)c1c(Cl)cncc1Cl` (stereo not drawn) [Cpd 14], for which the concentration for half-maximal inhibition (IC50) at human α4β7 and on α4β1 was greater than 5 µM throughout.
`O=C(Nc1ccc(CC(NC(=O)C2C3CCC(CC3)N2C(=O)Nc2ccccc2)C(=O)O)cc1)c1c(Cl)cncc1Cl` (stereo not drawn) [Cpd 20]: the half-inhibitory concentration (IC50) was 0.287 µM at human α4β7 and 0.259 µM on α4β1.
For `COc1cccc(CCC(=O)N2C3CCC(CC3)C2C(=O)NC(Cc2ccc(NC(=O)c3c(Cl)cncc3Cl)cc2)C(=O)O)c1` (stereo not drawn) [Cpd 49] the same measures were 0.009 µM and 0.001 µM.
As to `COc1ccc(OC)c(C(=O)N2C3CCC(CC3)C2C(=O)NC(Cc2ccc(NC(=O)c3c(Cl)cncc3Cl)cc2)C(=O)O)c1` (stereo not drawn) [Cpd 8], the IC50 was 1.02 µM at human α4β7 and 0.188 µM at α4β1.
`CC(C)(C)CC(=O)N1C2CCC(CC2)C1C(=O)NC(Cc1ccc(NC(=O)c2c(Cl)cncc2Cl)cc1)C(=O)O` (stereo not drawn) [Cpd 27]: the IC50 is 0.834 µM at human α4β7 and 0.386 µM at α4β1.
As to `O=C(Nc1ccc(CC(NC(=O)C2C3CCC(CC3)N2C(=O)C=Cc2ccc3c(c2)OCO3)C(=O)O)cc1)c1c(Cl)cncc1Cl` (stereo not drawn) [Cpd 46], the IC50 at human α4β7 is 0.476 µM; on α4β1, greater than 5 µM.
`O=C(Nc1ccc(CC(NC(=O)C2C3CCC(CC3)N2C(=O)c2ccccc2C(F)(F)F)C(=O)O)cc1)c1c(Cl)cncc1Cl` (stereo not drawn) [Cpd 12]: the IC50 at human α4β7 is 0.739 µM; at α4β1 it was 0.46 µM.
On to `COc1ccccc1C=CC(=O)N1C2CCC(CC2)C1C(=O)NC(Cc1ccc(NC(=O)c2c(Cl)cncc2Cl)cc1)C(=O)O` (stereo not drawn) [Cpd 45], for which the half-maximal inhibitory concentration (IC50) at human α4β7 was 0.036 µM; on α4β1, 0.003 µM.
For `O=C(Nc1ccc(CC(NC(=O)C2C3CCC(CC3)N2C(=O)OCc2ccccc2)C(=O)O)cc1)c1c(Cl)cncc1Cl` (stereo not drawn) [Cpd 64] the same measures were 0.024 µM and 0.009 µM.
Consider `O=C(Nc1ccc(CC(NC(=O)C2C3CCC(CC3)N2C(=O)CCc2cccnc2)C(=O)O)cc1)c1c(Cl)cncc1Cl` (stereo not drawn) [Cpd 65], for which the half-inhibitory concentration (IC50) at human α4β7 is 0.01 µM; at α4β1, 0.003 µM.
For `O=C(Nc1ccc(CC(NC(=O)C2C3CCC(CC3)N2C(=O)CCCC2CCCCC2)C(=O)O)cc1)c1c(Cl)cncc1Cl` (stereo not drawn) [Cpd 37] the same measures were 0.254 µM and 0.041 µM.
For `O=C(Nc1ccc(CC(NC(=O)C2C3CCC(CC3)N2Cc2ccccc2)C(=O)O)cc1)c1c(Cl)cncc1Cl` (stereo not drawn) [Cpd 18] the same measures were 0.309 µM and 0.543 µM.
For `O=C(Nc1ccc(CC(NC(=O)C2C3CCC(CC3)N2C(=O)NCc2ccccc2)C(=O)O)cc1)c1c(Cl)cncc1Cl` (stereo not drawn) [Cpd 25] the same measures were 0.379 µM and 0.072 µM.
As to `O=C(Nc1ccc(CC(NC(=O)C2C3CCC(CC3)N2C(=O)Nc2cccc(Cl)c2)C(=O)O)cc1)c1c(Cl)cncc1Cl` (stereo not drawn) [Cpd 23], the IC50 at human α4β7 is 0.444 µM; at α4β1, 0.248 µM.
For `CN(C)c1ccc(CC(=O)N2C3CCC(CC3)C2C(=O)NC(Cc2ccc(NC(=O)c3c(Cl)cncc3Cl)cc2)C(=O)O)cc1` (stereo not drawn) [Cpd 56] the same measures were 0.023 µM and 0.002 µM.
For `O=C(Nc1ccc(CC(NC(=O)C2C3CCC(CC3)N2C(=O)Cc2ccc3ccccc3c2)C(=O)O)cc1)c1c(Cl)cncc1Cl` (stereo not drawn) [Cpd 7] the same measures were 0.044 µM and 0.063 µM.
For `CC(C)(C)CC(=O)N1C2CCC(CC2)C1C(=O)NC(Cc1ccc(NC(=O)c2c(Cl)cncc2Cl)cc1)C(=O)O` (single isomer, unassigned) [Cpd 34] the same measures were 0.047 µM and 0.014 µM.
In the case of `O=C(Nc1ccc(CC(NC(=O)C2C3CCC(CC3)N2C(=O)c2cc(Cl)cc(Cl)c2)C(=O)O)cc1)c1c(Cl)cncc1Cl` (stereo not drawn) [Cpd 10], the IC50 is 0.185 µM on human α4β7 and 0.842 µM on α4β1.
For `O=C(Nc1ccc(CC(NC(=O)C2C3CCC(CC3)N2C(=O)CCc2ccccc2F)C(=O)O)cc1)c1c(Cl)cncc1Cl` (stereo not drawn) [Cpd 52] the same measures were 0.046 µM and 0.003 µM.
